From ChEMBL document CHEMBL1201862, “PubChem BioAssay data set” (2004)
Calls of active or inactive are those of the source.

Experiments:
A-375 = test: MITF: Counter assay: A375 proliferation Measured in Cell-Based System Using Plate Reader - 2084-03_Inhibitor_Dose_DryPowder_Activity. [Related pubchem assays (depositor defined):AID488944]; type: functional; conditions: Homo sapiens
[1] = luciferase reporter signal suppression in cells – H4 neuroglioma cells, luminescence, dose response (AID 1990); type: functional, cell-based
[2] = alpha-synuclein stem-loop luciferase translation blockers – H4 neuroglioma cells, luminescence, confirmation (AID 1988); type: functional, cell-based
Protein RecA = target: T1, Protein RecA (Mycobacterium tuberculosis, UniProt P9WHJ3); test: Fluorescence Cell-Free Homogeneous Dose Retest to Identify Inhibitors of RecA-Intein Splicing Activity. [Related pubchem assays (depositor defined):AID2097, AID2223, AID489010, AID492950]; type: functional
T1 sequence (P9WHJ3 whole entry): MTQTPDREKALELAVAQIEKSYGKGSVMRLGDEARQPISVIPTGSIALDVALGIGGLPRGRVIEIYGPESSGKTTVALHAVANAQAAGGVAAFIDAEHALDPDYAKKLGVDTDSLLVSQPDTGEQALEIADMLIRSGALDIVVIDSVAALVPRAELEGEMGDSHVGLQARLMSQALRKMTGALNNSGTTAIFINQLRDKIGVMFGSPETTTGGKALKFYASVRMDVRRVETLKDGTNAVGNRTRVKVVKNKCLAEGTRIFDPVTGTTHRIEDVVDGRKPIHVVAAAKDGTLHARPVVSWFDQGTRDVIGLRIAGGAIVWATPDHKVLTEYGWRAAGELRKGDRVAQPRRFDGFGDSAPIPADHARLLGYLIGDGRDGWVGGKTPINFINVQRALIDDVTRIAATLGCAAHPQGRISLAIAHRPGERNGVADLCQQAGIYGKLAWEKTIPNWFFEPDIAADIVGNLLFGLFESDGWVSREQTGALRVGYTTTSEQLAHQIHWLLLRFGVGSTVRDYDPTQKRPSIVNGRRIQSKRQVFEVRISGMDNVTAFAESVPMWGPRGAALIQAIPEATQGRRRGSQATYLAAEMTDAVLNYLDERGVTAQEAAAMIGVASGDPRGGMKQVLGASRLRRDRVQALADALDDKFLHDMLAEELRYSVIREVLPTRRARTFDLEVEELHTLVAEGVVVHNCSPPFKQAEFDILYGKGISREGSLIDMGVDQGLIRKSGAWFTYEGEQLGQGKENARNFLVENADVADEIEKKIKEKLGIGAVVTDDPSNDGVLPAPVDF

[3] = Luminescence Cell-Based Dose Response HTS to Identify Inhibitors of 5'UTR Stem-Loop Driven Prion Protein mRNA Translation in H4 Neuroglioblastoma Cells. [Related pubchem assays: 1827 (Project Summary), 1813 (Primary HTS)]; type: functional
[4] = target: T2, Long-chain-fatty-acid--AMP ligase FadD28 (Mycobacterium tuberculosis, UniProt P9WQ59); test: Fluorescence polarization aasay to screen for inhibitors that compete for the binding of FadD28 to a bisubstrate Measured in Biochemical System Using Plate Reader - 2147-01_Inhibitor_Dose_CherryPick_Activity.; type: functional, Mycobacterium tuberculosis H37Rv
T2 sequence (P9WQ59 whole entry): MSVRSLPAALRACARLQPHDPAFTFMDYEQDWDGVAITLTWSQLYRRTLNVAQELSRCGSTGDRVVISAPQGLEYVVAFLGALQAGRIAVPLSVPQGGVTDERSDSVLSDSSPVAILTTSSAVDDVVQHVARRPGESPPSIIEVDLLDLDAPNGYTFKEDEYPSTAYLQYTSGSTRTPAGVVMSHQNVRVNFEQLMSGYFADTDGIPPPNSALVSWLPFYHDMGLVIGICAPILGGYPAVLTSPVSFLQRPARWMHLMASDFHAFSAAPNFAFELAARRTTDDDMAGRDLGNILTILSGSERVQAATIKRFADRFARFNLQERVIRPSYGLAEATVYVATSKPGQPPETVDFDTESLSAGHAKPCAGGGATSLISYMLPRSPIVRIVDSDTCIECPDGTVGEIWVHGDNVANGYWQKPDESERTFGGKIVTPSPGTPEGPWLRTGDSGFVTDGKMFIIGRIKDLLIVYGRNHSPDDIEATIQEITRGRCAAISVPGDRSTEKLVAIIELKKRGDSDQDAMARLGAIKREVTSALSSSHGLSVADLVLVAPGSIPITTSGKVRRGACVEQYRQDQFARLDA

[5] = target: T3, Replicative DNA helicase DnaB (Mycobacterium tuberculosis, UniProt P9WMR3); test: DnaB intein splicing inhibitors, dose response, biochemical, cell-free fluorescence (AID 449749); type: functional
T3 sequence (P9WMR3 whole entry): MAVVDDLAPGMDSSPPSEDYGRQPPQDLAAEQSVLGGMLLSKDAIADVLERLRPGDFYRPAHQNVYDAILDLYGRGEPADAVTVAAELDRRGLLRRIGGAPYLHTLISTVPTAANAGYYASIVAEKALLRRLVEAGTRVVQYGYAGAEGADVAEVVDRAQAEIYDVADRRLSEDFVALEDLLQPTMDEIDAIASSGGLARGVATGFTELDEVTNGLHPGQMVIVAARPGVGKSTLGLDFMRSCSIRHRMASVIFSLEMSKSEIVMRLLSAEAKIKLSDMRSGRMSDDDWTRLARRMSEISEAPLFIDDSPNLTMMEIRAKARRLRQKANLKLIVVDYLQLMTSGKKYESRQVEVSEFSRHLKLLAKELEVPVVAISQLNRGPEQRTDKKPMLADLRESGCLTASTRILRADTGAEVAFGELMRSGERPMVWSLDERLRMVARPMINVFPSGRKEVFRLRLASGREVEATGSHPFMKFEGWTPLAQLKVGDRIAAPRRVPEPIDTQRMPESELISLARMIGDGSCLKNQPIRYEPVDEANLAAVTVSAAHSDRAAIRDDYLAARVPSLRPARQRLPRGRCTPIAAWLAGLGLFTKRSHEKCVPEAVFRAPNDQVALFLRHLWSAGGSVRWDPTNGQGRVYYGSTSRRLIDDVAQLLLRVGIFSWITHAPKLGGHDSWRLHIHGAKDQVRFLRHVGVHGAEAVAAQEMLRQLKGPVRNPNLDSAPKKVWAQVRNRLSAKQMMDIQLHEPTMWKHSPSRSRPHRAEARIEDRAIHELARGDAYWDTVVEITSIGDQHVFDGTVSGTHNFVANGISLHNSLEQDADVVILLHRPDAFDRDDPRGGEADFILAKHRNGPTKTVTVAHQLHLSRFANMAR

[6] = target: T4, Microphthalmia-associated transcription factor (Homo sapiens, UniProt O75030); test: reducers of TRPM1 reporter luminescence, concentration series – cell-based, SK-MEL-5, cherry-picked, set 3, MITF inhibitor project, dose response (AID 493073); type: functional;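 further: SK-MEL-5 melanoma cells with luciferase driven by the MITF target TRPM1 promoter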
T4 sequence (O75030 whole entry): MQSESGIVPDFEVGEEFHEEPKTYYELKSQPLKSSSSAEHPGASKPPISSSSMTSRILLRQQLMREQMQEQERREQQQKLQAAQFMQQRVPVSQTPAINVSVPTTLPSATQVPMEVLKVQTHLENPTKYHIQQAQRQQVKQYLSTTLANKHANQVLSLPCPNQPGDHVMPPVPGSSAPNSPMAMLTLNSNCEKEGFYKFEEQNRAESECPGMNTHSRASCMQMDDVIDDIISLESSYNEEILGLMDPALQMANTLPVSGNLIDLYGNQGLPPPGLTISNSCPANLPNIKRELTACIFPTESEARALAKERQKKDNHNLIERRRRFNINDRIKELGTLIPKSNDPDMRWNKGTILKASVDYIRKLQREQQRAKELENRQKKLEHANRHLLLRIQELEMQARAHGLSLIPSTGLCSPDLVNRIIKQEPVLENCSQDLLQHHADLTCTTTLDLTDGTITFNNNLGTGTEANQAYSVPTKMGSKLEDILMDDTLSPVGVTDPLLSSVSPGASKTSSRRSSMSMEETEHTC

Cytochrome P450 1A2 [7] = target: T5, Cytochrome P450 1A2 (Homo sapiens, UniProt P05177);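 further: PubChem cytochrome P450 panel assay, CYP1A2 panel member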
T5 sequence (P05177 whole entry): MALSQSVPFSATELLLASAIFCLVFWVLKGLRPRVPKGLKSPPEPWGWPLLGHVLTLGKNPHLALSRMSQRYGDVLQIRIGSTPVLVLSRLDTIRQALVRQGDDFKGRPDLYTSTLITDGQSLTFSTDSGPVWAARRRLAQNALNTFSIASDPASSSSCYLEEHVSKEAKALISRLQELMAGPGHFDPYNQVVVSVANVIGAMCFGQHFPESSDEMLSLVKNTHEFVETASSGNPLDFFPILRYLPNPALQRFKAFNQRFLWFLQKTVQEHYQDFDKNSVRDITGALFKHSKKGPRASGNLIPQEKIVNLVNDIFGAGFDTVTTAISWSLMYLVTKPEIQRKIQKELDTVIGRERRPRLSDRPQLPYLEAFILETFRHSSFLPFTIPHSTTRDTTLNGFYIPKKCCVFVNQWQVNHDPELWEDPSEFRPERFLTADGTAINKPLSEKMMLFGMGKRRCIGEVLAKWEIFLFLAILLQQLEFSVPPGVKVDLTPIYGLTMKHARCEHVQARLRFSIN

[8] = A Cell Based Secondary Assay To Explore Cytotoxicity of Compounds that Sensitize Mycobacterium Tuberculosis to Beta-Lactam Antibiotics.; type: functional
H4 = test: Luminescence Cell-Based Dose Response HTS to Identify Activators of 5'UTR Stem-Loop Driven Prion Protein mRNA Translation in H4 Neuroglioblastoma Cells. [Related pubchem assays: 1829 (Project Summary), 1814 (Primary HTS)]; type: functional; conditions: Homo sapiens
[9] = Luminescence Cell-Based Dose Confirmation HTS to Identify Activators of 5'UTR Stem-Loop Driven Alpha-Synuclein mRNA Translation in H4 Neuroglioblastoma Cells. [Related pubchem assays: 1829 (Project Summary), 1814 (Primary HTS)]; type: functional
Cytochrome P450 3A4 = Cytochrome P450 3A4 (Homo sapiens, UniProt P08684);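 further: CYP3A4 tested as one member of a cytochrome P450 panel screen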
Cytochrome P450 1A2 [10] = target: T5, Cytochrome P450 1A2; remark: listed apart in the source
Jurkat = test: blockers of NF-kB activation in T cells – Jurkat, luciferase reporter, luminescence, B- and T-cell, dose response (AID 489004); type: functional, cell-based; conditions: Homo sapiens;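 further: NF-kB luciferase reporter Jurkat cells stimulated with PMA plus ionomycin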
Paired box protein Pax-8 = Paired box protein Pax-8 (Homo sapiens, UniProt Q06710); test: PAX8 transcriptional activity inhibition in RMG-I – RMG-I cells, luciferase, cherry-pick, dose response (AID 687027); type: functional, cell-based;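 further: luciferase reporter driven by Pax8 target thyroperoxidase promoter measured by SteadyGlo luminescence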
[11] = HEK-293T viability loss, compound-treated – cell-based, uHTS hits, cytotoxicity control for B/T-cell NF-kB inhibitor project, dose response (AID 489019); type: functional;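 further: IC50 reflects cytotoxicity as loss of cell viability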
[12] = general cell-killing toxicity readout – plate reader, dry powder samples, cytotoxicity control for PAX8 inhibitor project, dose response (AID 743021); type: functional, cell-based
[13] = target: T6, Heat shock factor protein 1 (Mus musculus, UniProt P38532); test: decrease of HSF1-responsive luciferase luminescence – cell-based, NIH3T3, dose retest, confirmation (AID 2382); type: functional;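 further: NIH3T3 fibroblasts with HSF1-driven luciferase reporter stressed by proteasome inhibitor MG132; luminescence from HSF1-driven luciferase expression after 8 hours of MG132 stress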
T6 sequence (P38532 whole entry): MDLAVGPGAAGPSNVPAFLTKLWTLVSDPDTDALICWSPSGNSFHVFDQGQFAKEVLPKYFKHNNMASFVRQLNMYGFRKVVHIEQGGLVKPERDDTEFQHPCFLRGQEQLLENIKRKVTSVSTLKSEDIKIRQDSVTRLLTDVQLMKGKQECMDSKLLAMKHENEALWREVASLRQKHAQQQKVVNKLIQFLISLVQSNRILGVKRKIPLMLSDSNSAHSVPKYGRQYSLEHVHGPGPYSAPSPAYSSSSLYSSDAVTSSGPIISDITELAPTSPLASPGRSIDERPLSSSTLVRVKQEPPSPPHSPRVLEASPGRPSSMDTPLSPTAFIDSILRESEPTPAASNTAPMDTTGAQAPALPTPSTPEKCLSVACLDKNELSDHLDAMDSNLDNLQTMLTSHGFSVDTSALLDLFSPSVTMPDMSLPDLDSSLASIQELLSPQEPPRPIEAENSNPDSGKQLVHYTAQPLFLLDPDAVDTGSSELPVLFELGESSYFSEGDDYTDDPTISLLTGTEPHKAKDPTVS

[14] = HGIII-sPLA2 enzyme inhibition potency – biochemical, QFRET, IC50, dose response (AID 743457);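 further: green fluorescence rise as the enzyme cleaves BODIPY PC-A2 in liposomes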

Cytochrome P450 3A4, sequence (P08684 whole entry): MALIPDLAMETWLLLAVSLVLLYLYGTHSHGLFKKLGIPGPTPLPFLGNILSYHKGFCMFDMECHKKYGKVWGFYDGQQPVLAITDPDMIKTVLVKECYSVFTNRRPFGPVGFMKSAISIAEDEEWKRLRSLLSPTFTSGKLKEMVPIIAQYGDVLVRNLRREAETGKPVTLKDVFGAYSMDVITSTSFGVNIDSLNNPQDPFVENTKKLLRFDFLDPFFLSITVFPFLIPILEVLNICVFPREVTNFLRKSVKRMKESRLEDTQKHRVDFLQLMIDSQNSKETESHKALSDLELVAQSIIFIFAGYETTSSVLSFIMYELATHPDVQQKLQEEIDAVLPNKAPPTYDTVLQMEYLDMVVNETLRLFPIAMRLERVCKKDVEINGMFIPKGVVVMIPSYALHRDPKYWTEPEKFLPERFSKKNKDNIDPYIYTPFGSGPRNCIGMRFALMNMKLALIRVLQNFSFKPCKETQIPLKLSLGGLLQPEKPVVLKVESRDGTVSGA
Paired box protein Pax-8, sequence (Q06710 whole entry): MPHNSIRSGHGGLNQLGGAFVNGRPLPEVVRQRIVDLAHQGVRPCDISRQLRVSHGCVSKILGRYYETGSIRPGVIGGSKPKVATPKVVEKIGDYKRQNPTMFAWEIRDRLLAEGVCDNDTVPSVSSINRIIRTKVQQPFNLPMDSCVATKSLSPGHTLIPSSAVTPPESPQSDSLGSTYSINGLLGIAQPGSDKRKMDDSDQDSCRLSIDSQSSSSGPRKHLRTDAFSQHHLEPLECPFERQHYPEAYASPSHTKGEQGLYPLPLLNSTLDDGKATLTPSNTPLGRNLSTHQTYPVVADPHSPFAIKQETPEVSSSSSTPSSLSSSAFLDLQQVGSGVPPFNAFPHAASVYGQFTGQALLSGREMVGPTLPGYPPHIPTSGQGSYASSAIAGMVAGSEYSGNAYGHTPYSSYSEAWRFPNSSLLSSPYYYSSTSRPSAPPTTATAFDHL

With `O=C1C([N-]S(=O)(=O)c2cccs2)=C([n+]2ccccc2)C(=O)c2ccccc21` the AC50 (A-375) was 25.5 µM (active), the EC50 [1] was 12.9 µM (active) and the EC50 [2] was > 120 µM (not active). For the same molecule, the EC50 (Protein RecA) was 6.59 µM (active), the EC50 [3] was 14.2 µM (active) and the AC50 [4] was > 100 µM (inactive). The AC50 [5] was 10.2 µM (active) and the AC50 [6] was 1.07 µM (active).
With `COc1ccc(CCN(C)CCC[C@@](C#N)(c2cc(OC)c(OC)c(OC)c2)C(C)C)cc1OC` the AC50 (Cytochrome P450 1A2 [7]) was “inactive”.
For `CCC(=O)O[C@H](CC(=O)[O-])C[N+](C)(C)C`, the AC50 (Cytochrome P450 1A2 [7]) was “inconclusive”.
With `O=C(CCl)N(c1ccccc1)C1CCS(=O)(=O)C1` (stereo not given) the AC50 (A-375) was 27.7 µM (active), the CC50 [8] was 6.82 µM (active) and the EC50 (H4) was > 120 µM (not active). The EC50 [9] was > 120 µM (not active) and the AC50 [6] was 9.35 µM (active).
In the case of `Cn1ncc2c(Nc3cccc(C(=O)O)c3)ncnc21`, the AC50 (Cytochrome P450 3A4) is reported as “inconclusive”.
With `COC(=O)N1CCC2(CC1)CN(c1ccc(-c3ccccc3)cc1)C2` the AC50 (Cytochrome P450 3A4) was “inconclusive” and the AC50 (Cytochrome P450 1A2 [10]) was 1.26 µM (inconclusive).
For `C/N=c1\scc(-c2ccccc2F)n1/N=C/c1ccc[nH]1`, the IC50 (Jurkat) was 0.38 µM (active), the AC50 (Paired box protein Pax-8) was < 0.26 µM (active) and the IC50 [11] was > 80 µM (inactive). For the same molecule, the AC50 [12] was 44.3 µM (active), the EC50 [13] was < 0.16 µM (active) and the IC50 [14] was 50.6 µM (inactive). For the same molecule, the AC50 [6] was 0.019 µM (active).
